In paper PMC7365463, “Oxfendazole mediates macrofilaricidal efficacy against the filarial nematode Litomosoides sigmodontis in vivo and inhibits Onchocerca spec. motility in vitro” (PLoS Neglected Tropical Diseases, 2020):
Like-named read-outs stand apart in the source and are kept apart here.

Tests used:
mouse lymphoma assay = system: mouse lymphoma assay; parameters: method as in earlier work; details: in vitro; cited from earlier work
[1] = Plasma pharmacokinetics in mice (oral and subcutaneous); assay type: in vivo, BALB/c mice; details: for AUC(0-t) / Cmax / Tmax / half-life: female, BALB/c, mouse, plasma
Procedure: Female BALB/c mice (6 to 9-weeks old) were used to determine the plasma concentrations of oxfendazole. Animals were allocated to groups of three animals per dose, such that the mean weight of animals in each group was similar. All animals had access to a certified rodent diet (Beijing Keao […] Co, Ltd) and water ad libitum. In this study, all animals were fasted 12 h before dosing and returned to food 4 h post dose. Commercially available oxfendazole (Sigma Aldrich and Dolthene, Merial) was administered to animals. […] A commercially available formulation of oxfendazole, Dolthene, was diluted in corn oil and administered by oral gavage. After administration of the drug substances by oral gavage, blood samples were collected from each animal via the saphenous or mandibular veins at 0.25, 0.5, 1, 2, 4, 8, 12 and 24 h post dosing. For administration via the sc route, samples were collected from each animal 1, 3, 6, 9, 12, 18, 24, 36, 48, 72, 96, and 120 h post dosing. All samples were transferred into plastic tubes containing K2-EDTA (0.5 M) as an anti-coagulant and stored on ice until plasma preparation by centrifugation at 5°C (3000 g, 15 min). Analysis was conducted by LC-MS/MS (API 4000). Mobile phases were mixtures of acetonitrile (ACN) and water to which formic acid and 1 mM NH4OAc were added (0.025%, v/v). The ratio ACN/water was 5:95 (v/v) in the mobile phase A and 95:5 (v/v) in the mobile phase B. […] Electrospray positive ionization with selected ion MS/MS monitoring was used for the determination of oxfendazole: m/z 316.0/159.1.

Litomosoides sigmodontis [2] = system: Litomosoides sigmodontis; parameters: method as in Reddy 1983 (Ref. 15); details: L3 (mite), Mastomys natalensis, patent phase, necropsy 43 days p.t., ref Reddy 1983 (Ref. 15), cited from earlier work
[3] = parameters: method as in earlier work; details: in vivo, lack of potential for aneuploidy; cited from earlier work
Litomosoides sigmodontis [4] = assay: Patent L. sigmodontis infection in jirds (adult worms, microfilaremia, embryogenesis); details: for jirds with few microfilariae in the peripheral blood: between weeks 14 and 16 after treatment
[5] = system: Onchocerca lienalis microfilariae; assay: O. lienalis microfilariae 5-day motility assay; details: 120 h
mammalian tubulin = system: mammalian tubulin; parameters: method as in PMID 6712717, PMID 1554382; details: cited from earlier work
Brugia pahangi [6] = system: Brugia pahangi; parameters: method as in Reddy 1983 (Ref. 15); details: L3 (SC), Mastomys natalensis, patent phase, necropsy 43 days p.t., ref Reddy 1983 (Ref. 15), cited from earlier work
[7] = rats; cited from earlier work
[8] = parameters: method as in earlier work; details: dogs; cited from earlier work
Onchocerca lupi = system: Onchocerca lupi; parameters: method as in PMID 29377880; details: Onchocerca lupi-infected dogs; cited from earlier work
[9] = system: Onchocerca gutturosa adult male worms; assay: O. gutturosa adult worm MTT/formazan viability assay; details: 120 h
Brugia pahangi [10] = details: jirds, necropsy 5 weeks p.t., ref Surin 1990 (Ref. 11), cited from earlier work
[11] = system: Onchocerca gutturosa adult male worms; assay: O. gutturosa adult male worm 5-day motility assay
[12] = PO, nominal dose 5 mg/kg (administered 4.8)
[13] = PO, nominal dose 25 mg/kg (administered 26.3)
[14] = SC, nominal dose 1 mg/kg (administered 1.0)
[15] = SC, nominal dose 25 mg/kg (administered 27.5)

## COC(=O)Nc1nc2ccc([S+]([O-])c3ccccc3)cc2[nH]1 (stereo not drawn) [oxfendazole]
Mouse lymphoma assay
  toxicity in mouse lymphoma assay: did not exhibit toxicity
[1]; 25 mg/kg, higher in the oral treated group
  Cmax oral versus sc: about 6 times
[1]; [12]
  AUC(0-t): 14700 ng·h/mL
  Cmax: 2530 ng/mL
  Tmax: 1.67 h
[1]; PO, nominal dose 5 mg/kg (administered 4.8), read-out: T1/2 (converted)
  half-life: 2.87 h
[1]; [13]
  AUC(0-t): 50300 ng·h/mL
  Cmax: 8590 ng/mL
  Tmax: 2 h
[1]; PO, nominal dose 25 mg/kg (administered 26.3), read-out: T1/2 (converted)
  half-life: 1.87 h
[1]; [14]
  AUC(0-t): 1280 ng·h/mL
  Cmax: 131 ng/mL
  Tmax: 1.67 h
[1]; SC, nominal dose 1 mg/kg (administered 1.0), read-out: T1/2 (converted)
  half-life: 24.8 h
[1]; [15]
  AUC(0-t): 20800 ng·h/mL
  Cmax: 1450 ng/mL
  Tmax: 2.33 h
[1]; SC, nominal dose 25 mg/kg (administered 27.5), read-out: T1/2 (converted)
  half-life: 76 h
[1]; oral administration of 5 mg/kg
  Cmax: 8 µM
[1]; oral administration of 25 mg/kg
  Cmax: 27 µM
[1]; other: oral and sc, all groups (oral and sc)
  Tmax: ~2 h
[1]; other: oral and sc, both routes of administration, read-out: half-life T1/2 during the first 12 h (converted)
  half-life: ~2 h
[1]; higher when administered orally
  AUC0-last oral versus sc: 2.4 times
[1]; terminal phase starting 12 h after dosing, longer for sc
  terminal half-life sc versus T1/2 by oral route: ~40 times
Litomosoides sigmodontis [2]; SC 100mg/kg 5 cons. days
  Reduction of worm burden: 100%
Litomosoides sigmodontis [2]; per os 150mg/kg 5 cons. days
  Reduction of worm burden: 0%
[3]
  rat micronucleus assay outcome: confirmed the in vitro results
Litomosoides sigmodontis [4]; 2 x 5 mg/kg BID PO 10 days
  jirds with few microfilariae in the peripheral blood: one jird out of four
Litomosoides sigmodontis [4]; 2 x 12.5 mg/kg BID PO 10 days
  jirds with few microfilariae in the peripheral blood: one jird out of five
Litomosoides sigmodontis [4]; jirds, 2 x 5 mg/kg BID PO 10 days, 16 weeks after treatment start
  embryogenesis in recovered female worms (embryogram): embryogenesis was inhibited
Litomosoides sigmodontis [4]; jirds, PO BID 2 x 5 mg/kg for 10 days from 12 wpi, 16 weeks after treatment start
  animals with complete clearance of adult worms: two animals out of four
Litomosoides sigmodontis [4]; jirds, PO BID 2 x 12.5 mg/kg for 10 days from 12 wpi, 16 weeks after treatment start
  animals with complete clearance of adult worms: four animals out of five
Litomosoides sigmodontis [4]; jirds, both oxfendazole groups (2 x 12.5 and 2 x 5 mg/kg BID PO 10 days), 3 weeks after treatment
  microfilariae cleared from the peripheral blood: more than 99%
[5]; 1.25·10^−5 M
  microfilariae motility decrease: 53%
[5]; 5·10^−5 M
  microfilariae motility decrease: 67%
[5]; concentrations lower than 1.25·10^−5 M
  effect on microfilariae motility: No effect
Mammalian tubulin
  affinity to mammalian tubulin: weak affinity
Brugia pahangi [6]; SC 100mg/kg 5 cons. days
  Reduction of worm burden: 0%
Brugia pahangi [6]; per os 150mg/kg 5 cons. days
  Reduction of worm burden: 33%
[7]
  subacute toxicity, behavioral effects: did not raise safety concerns
[8]
  cardiovascular effects: did not raise safety concerns
Onchocerca lupi
  dermal microfilariae numbers: no significant decrease in dermal microfilariae numbers
[9]; 1.25 x 10^-5 M
  MTT Reduction (%): 12%
[9]; 3.1 x 10^-6 M
  MTT Reduction (%): 17%
[9]; 5.0 x 10^-5 M
  MTT Reduction (%): 11%
[9]; 7.8 x 10^-7 M
  MTT Reduction (%): 7%
Brugia pahangi [10]; 15Ad (IP), SC 50-25-12.5mg/kg 5 cons. days, 4 days p.i.
  Reduction of worm burden: 100%
Brugia pahangi [10]; 50L3 (IP), SC 25mg/kg 5 cons. days, 70 days p.i.
  Reduction of worm burden: 93.5%
Brugia pahangi [10]; 50L3 (IP), SC 50mg/kg 5 cons. days, 70 days p.i.
  Reduction of worm burden: 100%
[11]; 1.25 x 10^-5 M, 24 h
  Motility Reduction (%): 10%
[11]; 1.25 x 10^-5 M, 48 h
  Motility Reduction (%): 3%
[11]; 1.25 x 10^-5 M, 72 h
  Motility Reduction (%): 23%
[11]; 1.25 x 10^-5 M, 96 h
  Motility Reduction (%): 31%
[11]; 1.25 x 10^-5 M, 120 h
  Motility Reduction (%): 40%
[11]; 3.1 x 10^-6 M, 24 h
  Motility Reduction (%): 10%
[11]; 3.1 x 10^-6 M, 48 h
  Motility Reduction (%): 5%
[11]; 3.1 x 10^-6 M, 72 h
  Motility Reduction (%): 33%
[11]; 3.1 x 10^-6 M, 96 h
  Motility Reduction (%): 31%
[11]; 3.1 x 10^-6 M, 120 h
  Motility Reduction (%): 40%
[11]; 5.0 x 10^-5 M, 24 h
  Motility Reduction (%): 16%
[11]; 5.0 x 10^-5 M, 48 h
  Motility Reduction (%): 9%
[11]; 5.0 x 10^-5 M, 72 h
  Motility Reduction (%): 29%
[11]; 5.0 x 10^-5 M, 96 h
  Motility Reduction (%): 33%
[11]; 5.0 x 10^-5 M, 120 h
  Motility Reduction (%): 44%
[11]; 7.8 x 10^-7 M, 24 h
  Motility Reduction (%): 4%
[11]; 7.8 x 10^-7 M, 48 h
  Motility Reduction (%): 5%
[11]; 7.8 x 10^-7 M, 72 h
  Motility Reduction (%): 20%
[11]; 7.8 x 10^-7 M, 96 h
  Motility Reduction (%): 31%
[11]; 7.8 x 10^-7 M, 120 h
  Motility Reduction (%): 38%
